Results as given in the supplement of paper PMC10307832.

Legend:
Experiment in all cases: relative viability (nuclei count vs DMSO), 5 days (fraction); higher = more cells survive
[1] = compound: CN1CCN(CC1)C2=CC(=C(C=C2)NC3=NC(=C(S3)C(=O)C4=C(C=CC=C4Cl)Cl)N)OC [XMD14-99] + O=C(c1cc(Cc2n[nH]c(=O)c3ccccc23)ccc1F)N1CCN(C(=O)C2CC2)CC1 [Olaparib] (partner 8 µM)
Method in brief: (§1)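 Cells from lung cancer lines were seeded into 1536-well plates and, one day later, dosed by pin tool. Treatments were either a single drug or a fixed dose of an anchor drug with five library-drug doses (not always all listed) in √10 steps. After 5 days, nuclei were stained in a one-step fixation (final 0.05% Triton X-100, 1% formaldehyde, 1 ug/ml Hoechst) and counted on 4× images, and relative viability is the treated-to-vehicle nuclei ratio, as the median of duplicate plates.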

[2] = compound: N[C@@H]1CCCN(c2c(/C=C3\SC(=O)NC3=O)cccc2-c2ccccc2)C1 [AZD1208] + CC(=O)Nc1cccc(-n2c(=O)n(C3CC3)c(=O)c3c(Nc4ccc(I)cc4F)n(C)c(=O)c(C)c32)c1 [Trametinib] (partner 0.02 µM)
Method in brief: as §1

[3] = compound: N[C@@H]1CCCN(c2c(/C=C3\SC(=O)NC3=O)cccc2-c2ccccc2)C1 [AZD1208] + COc1cccc2cc(-c3nc([C@H]4CC[C@H](C(=O)O)CC4)n4ncnc(N)c34)[nH]c12 [OSI-027] (partner 0.5 µM)
Method in brief: as §1

[4] = compound: N[C@@H]1CCCN(c2c(/C=C3\SC(=O)NC3=O)cccc2-c2ccccc2)C1 [AZD1208] + C[C@@H](Oc1cc(-c2cnn(C3CCNCC3)c2)cnc1N)c1c(Cl)ccc(F)c1Cl [Crizotinib] (partner 1 µM)
Method in brief: as §1

| Cell Line | relative viability ([1]; first compound 0.08 µM) | relative viability ([1]; first compound 0.8 µM) | relative viability ([1]; first compound 2.53 µM) | relative viability ([1]; first compound 8 µM) | relative viability ([2]; first compound 0.08 µM) | relative viability ([2]; first compound 0.253 µM) | relative viability ([2]; first compound 0.8 µM) | relative viability ([2]; first compound 2.53 µM) | relative viability ([2]; first compound 8 µM) | relative viability ([3]; first compound 0.08 µM) | relative viability ([3]; first compound 0.253 µM) | relative viability ([3]; first compound 0.8 µM) | relative viability ([3]; first compound 2.53 µM) | relative viability ([3]; first compound 8 µM) | relative viability ([4]; first compound 0.08 µM) | relative viability ([4]; first compound 0.253 µM) | relative viability ([4]; first compound 0.8 µM) | relative viability ([4]; first compound 2.53 µM) | relative viability ([4]; first compound 8 µM) |
| --- | --- | --- | --- | --- | --- | --- | --- | --- | --- | --- | --- | --- | --- | --- | --- | --- | --- | --- | --- |
| NCI-H2342 | 0.548 | 0.459 | 0.484 | 0.409 | 0.803 | 0.806 | 0.781 | 0.678 | 0.637 | 0.575 | 0.664 | 0.488 | 0.627 | 0.574 |  |  |  |  |  |
| SK-MES-1 | 0.658 | 0.689 | 0.576 | 0.32 | 0.47 | 0.509 | 0.54 | 0.533 | 0.482 | 0.541 | 0.509 | 0.492 | 0.541 | 0.461 | 1.07 | 0.944 | 0.909 | 0.974 | 0.78 |
| NCI-H1993 | 1.11 | 0.942 | 0.943 | 0.793 | 0.496 | 0.515 | 0.447 | 0.477 | 0.376 | 0.599 | 0.447 | 0.616 | 0.491 | 0.536 |  | 0.678 | 0.759 | 0.735 | 0.728 |
| HCC-366 | 0.375 | 0.344 | 0.315 | 0.243 | 0.328 | 0.327 | 0.297 | 0.286 | 0.221 | 0.963 | 0.96 | 0.837 | 0.819 | 0.672 | 0.479 | 0.593 | 0.536 | 0.452 | 0.246 |
| 201T | 0.861 | 0.799 | 0.776 | 0.695 | 0.749 | 0.716 | 0.721 | 0.725 | 0.732 | 0.81 | 0.78 | 0.512 | 0.53 | 0.477 | 1 | 1.08 | 1.06 | 1.11 | 1.14 |
| HCC-827 | 0.596 | 0.632 | 0.622 | 0.491 | 0.557 | 0.516 | 0.536 | 0.524 | 0.398 | 0.688 | 0.751 | 0.707 | 0.617 | 0.667 | 0.93 | 0.992 | 0.931 | 0.915 | 0.936 |
| NCI-H650 | 0.39 | 0.355 | 0.338 | 0.327 | 0.852 | 0.904 | 1.1 | 0.93 | 0.743 | 0.574 | 0.435 | 0.477 | 0.394 | 0.398 | 0.704 | 0.723 | 0.577 | 0.576 | 0.643 |
| NCI-H2085 | 0.773 | 0.694 | 0.718 | 0.605 | 0.55 | 0.475 | 0.558 | 0.446 | 0.531 | 0.796 | 0.933 | 0.585 | 0.934 | 0.661 | 0.703 | 0.906 | 0.951 | 0.865 | 0.882 |
| NCI-H596 | 0.815 | 0.725 | 0.646 | 0.665 | 0.759 | 0.905 | 0.79 | 0.654 | 0.446 | 0.666 | 0.817 | 0.62 | 0.56 | 0.359 | 0.853 | 1.04 | 0.837 | 0.955 | 0.711 |
| SK-LU-1 | 0.423 | 0.459 | 0.374 | 0.34 | 0.46 | 0.531 | 0.446 | 0.491 | 0.585 | 0.283 | 0.337 | 0.285 | 0.316 | 0.248 | 0.991 | 1.16 | 0.882 | 0.819 | 0.674 |
| A-427 | 0.793 | 0.628 | 0.67 | 0.501 | 0.622 | 0.71 | 0.6 | 0.619 | 0.537 | 0.453 | 0.543 | 0.469 | 0.41 | 0.378 | 0.888 | 0.974 | 0.797 | 0.851 | 0.767 |
| NCI-H460 | 0.394 | 0.432 | 0.421 | 0.182 | 0.137 | 0.189 | 0.138 | 0.109 | 0.124 | 0.59 | 0.853 | 0.633 | 0.647 | 0.477 | 0.912 | 1.17 | 0.854 | 0.709 | 0.871 |
| NCI-H1703 | 0.492 | 0.456 | 0.622 | 0.269 |  |  |  |  |  |  |  |  |  |  | 0.365 | 0.53 | 0.579 | 0.594 | 0.461 |
| NCI-H1792 | 0.486 | 0.383 | 0.265 | 0.0886 | 0.424 | 0.368 |  | 0.312 | 0.306 | 0.679 | 0.778 | 0.614 | 0.607 | 0.61 | 1.03 | 1.08 | 0.858 | 0.956 | 0.907 |
| Calu-6 | 0.524 | 0.529 | 0.502 | 0.472 |  |  |  |  |  |  |  |  |  |  | 0.615 | 0.952 | 0.672 | 0.711 | 0.758 |
| SW 1573 | 0.445 | 0.457 | 0.488 | 0.308 | 0.433 | 0.438 | 0.44 | 0.419 | 0.317 | 0.397 | 0.548 | 0.451 | 0.381 | 0.348 | 0.686 | 0.674 | 0.686 | 0.607 | 0.591 |
| RERF-LC-KJ | 0.986 | 0.856 | 0.882 | 0.648 | 0.903 | 0.844 | 0.727 | 0.776 | 0.548 | 0.511 | 0.558 | 0.512 | 0.518 | 0.41 | 0.868 | 0.863 | 0.835 | 0.791 | 0.792 |
| EMC-BAC-2 | 0.507 | 0.483 | 0.443 | 0.422 | 0.852 | 0.83 | 0.777 | 0.806 | 0.702 | 0.364 | 0.37 | 0.346 | 0.296 | 0.315 | 0.84 | 0.785 | 0.74 | 0.798 | 0.674 |
